One assay addresses SMARCA4 (Homo sapiens, UniProt P51532). Kind of assay: HiBiT assay for protein degradation, Hela SMARCA4-HiBiT cells (A series). The class given is cell-based. Details: fuse HiBiT to the carboxy terminus of SMARCA2 (Promega CS302365) or SMARCA4 (Promega CS3023225); host or cells: HeLa (CRISPR/Cas9 HiBiT knock-in). The note with it: for DC50: read-out: SMARC A4 Hela HiBit DC50. In short, it runs like this: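 SMARCA4 degradation was measured in HeLa cells in which HiBiT had been knocked into the SMARCA4 carboxy terminus via CRISPR/Cas9 (Promega CS3023225). Cells were maintained in DMEM with FBS and penicillin-streptomycin. At the end of treatment, SMARCA4 levels were read by lytic HiBiT luminescence (Nano-Glo®, Promega N3050), and data were analyzed with GraphPad Prism.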
(With HiBiT, luminescence reflects the tagged protein that the partner subunit can reach.)

The next assay concerns the target SMARCA2 (Homo sapiens, UniProt P51531). Kind of assay: HiBiT assay for protein degradation, Hela SMARCA2-HiBiT cells (A series).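 For SMARC A2 Hela HiBit Dmax (%): 24 h compound treatment.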 The format is cell-based. Details: Hela cells were genetically modified via CRISPR/Cas9 to fuse HiBiT to the carboxy terminus of SMARCA2; host or cells: HeLa (CRISPR/Cas9 HiBiT knock-in). The note with it: for Dmax: read-out: SMARC A2 Hela HiBit Dmax (%); for DC50: read-out: SMARC A2 Hela HiBit DC50. In outline: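 SMARCA2 degradation was measured in HeLa cells whose endogenous SMARCA2 carries a carboxy-terminal HiBiT tag introduced by CRISPR/Cas9 (Promega CS302365). Cells were maintained in DMEM with FBS and penicillin-streptomycin. SMARCA2 levels were read at the end of the experiment by Nano-Glo® HiBiT lytic luminescence (Promega N3050) and analyzed in GraphPad Prism.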

[1] abbreviates: Hela SMARCA4-HiBiT cells, 24 hours treatment.
[2] abbreviates: Hela SMARCA2-HiBiT cells, 24 hours treatment.
[3] abbreviates: Hela SMARCA4-HiBiT cells, 24 hours treatment, read-out: SMARC A4 Hela HiBit Dmax(%).
The mark [4] stands for this setting: Hela SMARCA4-HiBiT cells, 24 hours treatment, read-out: SMARC A4 Hela HiBit Dmax.

Read-outs that look alike come from different tables or passages of the source. Where only a bound is given, the exact number is not on record here.

Sequence of SMARCA4 (P51532 whole entry): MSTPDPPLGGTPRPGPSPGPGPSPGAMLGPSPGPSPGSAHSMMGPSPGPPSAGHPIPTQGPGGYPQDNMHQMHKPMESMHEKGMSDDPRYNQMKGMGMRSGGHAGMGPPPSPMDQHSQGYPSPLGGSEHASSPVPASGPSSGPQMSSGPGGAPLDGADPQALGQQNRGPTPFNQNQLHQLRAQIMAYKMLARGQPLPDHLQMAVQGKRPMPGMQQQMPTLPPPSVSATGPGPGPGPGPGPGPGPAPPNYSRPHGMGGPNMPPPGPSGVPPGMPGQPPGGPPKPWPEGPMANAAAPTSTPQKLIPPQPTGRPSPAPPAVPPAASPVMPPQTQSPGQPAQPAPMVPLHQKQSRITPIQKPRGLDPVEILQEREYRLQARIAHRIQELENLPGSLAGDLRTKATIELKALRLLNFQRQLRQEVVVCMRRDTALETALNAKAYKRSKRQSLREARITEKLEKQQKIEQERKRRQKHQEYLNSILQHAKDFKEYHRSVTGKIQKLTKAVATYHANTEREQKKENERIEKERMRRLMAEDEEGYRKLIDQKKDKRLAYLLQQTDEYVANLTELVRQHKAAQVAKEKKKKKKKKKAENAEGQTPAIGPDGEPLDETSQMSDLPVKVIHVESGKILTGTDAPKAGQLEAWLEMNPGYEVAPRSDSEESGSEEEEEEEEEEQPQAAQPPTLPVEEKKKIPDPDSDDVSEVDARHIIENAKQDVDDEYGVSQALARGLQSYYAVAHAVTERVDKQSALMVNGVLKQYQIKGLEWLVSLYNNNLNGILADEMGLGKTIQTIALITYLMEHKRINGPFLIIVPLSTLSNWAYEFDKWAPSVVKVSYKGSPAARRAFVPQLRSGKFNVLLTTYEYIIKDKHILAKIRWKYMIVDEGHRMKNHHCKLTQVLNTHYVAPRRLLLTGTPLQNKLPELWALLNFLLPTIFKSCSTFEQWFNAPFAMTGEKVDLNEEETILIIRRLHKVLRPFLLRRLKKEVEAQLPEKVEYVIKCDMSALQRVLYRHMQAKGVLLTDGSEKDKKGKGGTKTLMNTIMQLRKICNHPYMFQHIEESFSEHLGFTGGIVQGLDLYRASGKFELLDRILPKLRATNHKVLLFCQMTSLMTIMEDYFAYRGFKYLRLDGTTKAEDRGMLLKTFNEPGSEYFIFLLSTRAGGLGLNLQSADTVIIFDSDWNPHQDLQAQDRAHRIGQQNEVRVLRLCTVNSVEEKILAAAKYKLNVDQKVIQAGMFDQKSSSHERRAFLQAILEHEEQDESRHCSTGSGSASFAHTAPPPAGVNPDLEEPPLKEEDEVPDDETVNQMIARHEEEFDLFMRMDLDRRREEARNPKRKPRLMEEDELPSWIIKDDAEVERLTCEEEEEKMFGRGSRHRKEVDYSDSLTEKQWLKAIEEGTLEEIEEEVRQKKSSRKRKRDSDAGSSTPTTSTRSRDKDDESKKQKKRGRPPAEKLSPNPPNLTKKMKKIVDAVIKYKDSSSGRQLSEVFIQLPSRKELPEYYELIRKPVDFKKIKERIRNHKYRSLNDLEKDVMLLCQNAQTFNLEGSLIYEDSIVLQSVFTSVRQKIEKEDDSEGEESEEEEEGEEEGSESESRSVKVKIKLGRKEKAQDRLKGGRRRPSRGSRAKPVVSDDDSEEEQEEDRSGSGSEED
Sequence of SMARCA2 (P51531 whole entry): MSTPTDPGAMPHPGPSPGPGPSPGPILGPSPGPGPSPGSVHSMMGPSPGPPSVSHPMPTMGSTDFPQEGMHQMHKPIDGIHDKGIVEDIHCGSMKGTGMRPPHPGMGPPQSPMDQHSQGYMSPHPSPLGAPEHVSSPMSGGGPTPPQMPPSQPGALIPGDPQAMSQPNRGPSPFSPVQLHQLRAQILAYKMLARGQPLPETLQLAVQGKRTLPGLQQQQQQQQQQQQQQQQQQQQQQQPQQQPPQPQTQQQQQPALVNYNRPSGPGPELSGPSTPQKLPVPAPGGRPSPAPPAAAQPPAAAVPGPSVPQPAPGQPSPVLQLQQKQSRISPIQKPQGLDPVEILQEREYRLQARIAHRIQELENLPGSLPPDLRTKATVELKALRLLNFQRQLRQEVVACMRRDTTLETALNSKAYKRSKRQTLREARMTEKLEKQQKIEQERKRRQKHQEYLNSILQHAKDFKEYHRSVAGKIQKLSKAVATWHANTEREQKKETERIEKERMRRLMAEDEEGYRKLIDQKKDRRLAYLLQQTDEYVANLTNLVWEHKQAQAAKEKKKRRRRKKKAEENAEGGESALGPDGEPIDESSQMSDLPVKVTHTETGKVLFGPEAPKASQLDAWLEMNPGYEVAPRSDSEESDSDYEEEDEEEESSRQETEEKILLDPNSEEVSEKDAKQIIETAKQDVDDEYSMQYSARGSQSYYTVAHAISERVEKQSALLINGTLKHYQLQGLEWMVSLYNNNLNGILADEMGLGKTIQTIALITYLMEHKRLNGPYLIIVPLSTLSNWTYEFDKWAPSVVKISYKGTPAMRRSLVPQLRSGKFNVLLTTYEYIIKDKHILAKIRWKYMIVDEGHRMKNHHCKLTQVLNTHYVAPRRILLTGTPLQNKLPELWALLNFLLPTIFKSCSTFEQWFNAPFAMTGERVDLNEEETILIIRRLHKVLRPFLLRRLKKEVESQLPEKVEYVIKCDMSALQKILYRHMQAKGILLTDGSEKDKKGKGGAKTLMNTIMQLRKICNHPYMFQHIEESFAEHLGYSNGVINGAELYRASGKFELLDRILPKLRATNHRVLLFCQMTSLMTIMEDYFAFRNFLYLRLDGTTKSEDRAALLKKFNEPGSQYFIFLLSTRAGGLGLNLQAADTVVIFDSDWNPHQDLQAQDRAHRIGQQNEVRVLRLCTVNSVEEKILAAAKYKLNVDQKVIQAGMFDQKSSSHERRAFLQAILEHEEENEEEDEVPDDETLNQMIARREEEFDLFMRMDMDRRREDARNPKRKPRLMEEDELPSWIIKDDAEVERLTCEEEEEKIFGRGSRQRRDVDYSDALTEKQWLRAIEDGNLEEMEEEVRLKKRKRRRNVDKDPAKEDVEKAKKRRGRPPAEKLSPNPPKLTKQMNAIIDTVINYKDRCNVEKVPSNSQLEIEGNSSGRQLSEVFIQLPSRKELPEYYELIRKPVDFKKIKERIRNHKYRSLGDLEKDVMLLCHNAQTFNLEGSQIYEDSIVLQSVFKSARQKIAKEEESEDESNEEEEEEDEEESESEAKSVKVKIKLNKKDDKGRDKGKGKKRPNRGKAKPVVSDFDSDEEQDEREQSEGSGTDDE

Consider `Cc1ncsc1-c1ccc([C@H](CCCCCN2CCC(c3ccc4c(c3)C3(CCCCC3)c3nc(=O)c5c(Cl)cccc5n3-4)CC2)NC(=O)[C@@H]2C[C@@H](O)CN2C(=O)[C@@H](NC(=O)C2(F)CC2)C(C)(C)C)cc1` [Compound A3, (2S,4R)—N—((S)-6-(4-(4′-chloro-5′-oxo-5′H-spiro[cyclohexane-1,7′-indolo[1,2-a]quinazolin]-9′-yl)piperidin-1-yl)-1-(4-(4-methylthiazol-5-yl)phenyl)hexyl)-1-((S)-2-(1-fluorocyclopropane-1-carboxamido)-3,3-dimethylbutanoyl)-4-hydroxypyrrolidine-2-carboxamide], for which the maximal degradation (Dmax) on SMARCA4 (HeLa, read-out: SMARC A4 Hela HiBit Dmax(%)) is over 90%; at SMARCA2 (HeLa), over 90%. Further, the DC50 at SMARCA4 (setting [1]) and on SMARCA2 (setting [2]) was under 100 nM throughout.

Consider `CC(C)(C)[C@H](NC(=O)C1(F)CC1)C(=O)N1C[C@H](O)C[C@H]1C(=O)N[C@@H](CCCCCN1CCC(c2ccc3c(c2)C2(CCCCC2)c2nc(=O)c4c(Br)cccc4n2-3)CC1)c1ccc(Cl)cc1` [Compound A25, (2S,4R)—N—((S)-6-(4-(4′-bromo-5′-oxo-5′H-spiro[cyclohexane-1,7-indolo[1,2-a]quinazolin]-9′-yl)piperidin-1-yl)-1-(4-chlorophenyl)hexyl)-1-((S)-2-(1-fluorocyclopropane-1-carboxamido)-3,3-dimethylbutanoyl)-4-hydroxypyrrolidine-2-carboxamide], for which the DC50 at SMARCA4 (setting [1]) and at SMARCA2 (setting [2]) was over 1000 nM each time. Besides, the Dmax on SMARCA4 (setting [3]) and on SMARCA2 (setting [2]) was under 50% each time.

In the case of `Cc1ncsc1-c1ccc([C@H](CN2CCC3(COC3)C2)NC(=O)[C@@H]2C[C@@H](O)CN2C(=O)[C@@H](n2cc([C@H]3CC[C@H](CN4CCC(c5ccc6c(c5)-n5c(nc(=O)c7c(Cl)cccc75)C6(C)C)CC4)CC3)nn2)C(C)(C)C)cc1` [Compound A99, (2S,4R)-1-((S)-2-(4-((1r,4S)-4-((4-(4-chloro-7,7-dimethyl-5-oxo-5,7-dihydroindolo[1,2-a]quinazolin-10-yl)piperidin-1-yl)methyl)cyclohexyl)-1H-1,2,3-triazol-1-yl)-3,3-dimethylbutanoyl)-4-hydroxy-N—((R)-1-(4-(4-methylthiazol-5-yl)phenyl)-2-(2-oxa-6-azaspiro[3.4]octan-6-yl)ethyl)pyrrolidine-2-carboxamide], the DC50 is over 1000 nM on SMARCA4 (setting [1]) and under 10 nM on SMARCA2 (setting [2]). For the same compound, the Dmax is under 50% at SMARCA4 (setting [4]) and over 90% at SMARCA2 (setting [2]).

For the compound `Cc1ncsc1-c1ccc([C@H](Cn2cc([C@H]3CC[C@H](CN4CCC(c5ccc6c(c5)C5(CCCCC5)c5nc(=O)c7c(Br)cccc7n5-6)CC4)CC3)nn2)NC(=O)[C@@H]2C[C@@H](O)CN2C(=O)[C@@H](NC(=O)C2(F)CC2)C(C)(C)C)cc1` [Compound A33, (2S,4R)—N—((R)-2-(4-((1r,4R)-4-((4-(4′-bromo-5′-010-5′H-spiro[cyclohexane-1,7′-indolo[1,2-a]quinazolin]-9′-yl)piperidin-1-yl)methyl)cyclohexyl)-1H-1,2,3-triazol-1-yl)-1-(4-(4-methylthiazol-5-yl)phenyl)ethyl)-1-((S)-2-(1-fluorocyclopropane-1-carboxamido)-3,3-dimethylbutanoyl)-4-hydroxypyrrolidine-2-carboxamide], the values for the DC50 at SMARCA4 (setting [1]) and at SMARCA2 (setting [2]) were 100 to 500 nM and under 100 nM, respectively. Further, the greatest degradation seen (Dmax) on SMARCA4 (setting [3]) was 70 to 90%; at SMARCA2 (setting [2]), over 90%.

Turning to `Cc1ncsc1-c1ccc([C@H](C)NC(=O)[C@@H]2C[C@@H](O)CN2C(=O)[C@@H](NC(=O)CN2CCC(c3ccc4c(c3)-n3c(nc(=O)c5c(Cl)cccc53)C43CCCCC3)CC2)C(C)(C)C)cc1` [Compound A39, (2S,4R)-1-((S)-2-(2-(4-(4′-chloro-5′-oxo-5′H-spiro[cyclohexane-1,7′-indolo[1,2-a]quinazolin]-10′-yl)piperidin-1-yl)acetamido)-3,3-dimethylbutanoyl)-4-hydroxy-N—((S)-1-(4-(4-methylthiazol-5-yl)phenyl)ethyl)pyrrolidine-2-carboxamide], the half-maximal degradation concentration (DC50) on SMARCA4 (setting [1]) and on SMARCA2 (setting [2]) was under 100 nM each time. Besides, the Dmax at SMARCA4 (setting [3]) and on SMARCA2 (setting [2]) was over 90% in each case.

On to `Cc1ncsc1-c1ccc([C@H](C)NC(=O)[C@@H]2C[C@@H](O)CN2C(=O)[C@H](C2CCNCC2)n2cc([C@H]3CC[C@H](CN4CCC(c5ccc6c(c5)-n5c(nc(=O)c7c(Cl)cccc75)C65CCCCC5)CC4)CC3)nn2)cc1` [Compound A109, (2S,4R)-1-((S)-2-(4-((1r,4S)-4-((4-(4′-chloro-5′-oxo-5′H-spiro[cyclohexane-1,7′-indolo[1,2-a]quinazolin]-10′-yl)piperidin-1-yl)methyl)cyclohexyl)-1H-1,2,3-triazol-1-yl)-2-(piperidin-4-yl)acetyl)-4-hydroxy-N—((S)-1-(4-(4-methylthiazol-5-yl)phenyl)ethyl)pyrrolidine-2-carboxamide], for which the figures for the DC50 at SMARCA4 (setting [1]) and on SMARCA2 (setting [2]) were over 1000 nM and 100 to 1000 nM, respectively. The values for the Dmax at SMARCA4 (setting [4]) and on SMARCA2 (setting [2]) were 50 to 69% and 70 to 90%, respectively.

As to `Cc1ncsc1-c1ccc([C@H](CN2CCOCC2)NC(=O)[C@@H]2C[C@@H](O)CN2C(=O)[C@@H](NC(=O)C23CCC(CN4CCC(c5ccc6c(c5)C5(CCCCC5)c5nc(=O)c7c(Br)cccc7n5-6)CC4)(CC2)CC3)C(C)(C)C)cc1` [Compound A28, (2S,4R)-1-((S)-2-(4-((4-(4′-bromo-5′-oxo-5′H-spiro[cyclohexane-1,7′-indolo[1,2-a]quinazolin]-9′-yl)piperidin-1-yl)methyl)bicyclo[2.2.2]octane-1-carboxamido)-3,3-dimethylbutanoyl)-4-hydroxy-N—((R)-1-(4-(4-methylthiazol-5-yl)phenyl)-2-morpholinoethyl)pyrrolidine-2-carboxamide], the “SMARC A4 Hela HiBit Dmax(%)” value on SMARCA4 (setting [1]) is given as “C (C (50-69% degradation))”. Further, the DC50 at SMARCA4 is 100 to 500 nM; at SMARCA2 it was under 100 nM. Also, the “SMARC A2 Hela HiBit Dmax (%)” value on SMARCA2 (setting [2]) is listed as “B (B (70-90% degradation))”.

With `Cc1ncsc1-c1ccc([C@H](C)NC(=O)[C@@H]2C[C@@H](O)CN2C(=O)[C@@H](n2cc(CCCCCCN3CCC(c4ccc5c(c4)-n4c(nc(=O)c6c(Br)cccc64)C54CCCCC4)CC3)nn2)C(C)(C)C)cc1` [Compound A47, (2S,4R)-1-((S)-2-(4-(6-(4-(4′-bromo-5′-oxo-5′H-spiro[cyclohexane-1,7′-indolo[1,2-a]quinazolin]-10′-yl)piperidin-1-yl)hexyl)-1H-1,2,3-triazol-1-yl)-3,3-dimethylbutanoyl)-4-hydroxy-N—((S)-1-(4-(4-methylthiazol-5-yl)phenyl)ethyl)pyrrolidine-2-carboxamide], the “SMARC A4 Hela HiBit Dmax(%)” value at SMARCA4 (setting [1]) was “A (A (>90% degradation))”. Also, the 50% degradation concentration (DC50) on SMARCA4 and at SMARCA2 was under 100 nM each time. Also, the “SMARC A2 Hela HiBit Dmax (%)” value on SMARCA2 (setting [2]) is “A (A (>90% degradation))”.

With `Cc1ncsc1-c1ccc([C@H](C)NC(=O)[C@@H]2C[C@@H](O)CN2C(=O)[C@@H](NC(=O)C2CC(CN3CCC(c4ccc5c(c4)C4(CCCCC4)c4nc(=O)c6c(Br)cccc6n4-5)CC3)C2)C(C)(C)C)cc1` (stereo partly drawn) [Compound A20, (2S,4R)-1-((S)-2-(3-((4-(4′-bromo-5′-oxo-5′H-spiro[cyclohexane-1,7′-indolo[1,2-a]quinazolin]-9′-yl)piperidin-1-yl)methyl)cyclobutane-1-carboxamido)-3,3-dimethylbutanoyl)-4-hydroxy-N—((S)-1-(4-(4-methylthiazol-5-yl)phenyl)ethyl)pyrrolidine-2-carboxamide], the greatest degradation seen (Dmax) was under 50% on SMARCA4 (setting [3]) and over 90% at SMARCA2 (HeLa). Also, the figures for the DC50 on SMARCA4 and at SMARCA2 were over 1000 nM and under 100 nM, respectively.

For `O=C(O)c1ncsc1-c1ccc([C@H](CN2CCOCC2)NC(=O)[C@@H]2C[C@@H](O)CN2C(=O)[C@H](C2CCOCC2)n2cc([C@H]3CC[C@H](CN4CCC(c5ccc6c(c5)-n5c(nc(=O)c7c(Cl)cccc75)C65CCCCC5)CC4)CC3)nn2)cc1` [Compound A134, 5-(4-((R)-1-((2S,4R)-1-((S)-2-(4-((1r,4S)-4-((4-(4′-chloro-5′-oxo-5′H-spiro[cyclohexane-1,7′-indolo[1,2-a]quinazolin]-10′-yl)piperidin-1-yl)methyl)cyclohexyl)-1H-1,2,3-triazol-1-yl)-2-(tetrahydro-2H-pyran-4-yl)acetyl)-4-hydroxypyrrolidine-2-carboxamido)-2-morpholinoethyl)phenyl)thiazole-4-carboxylic acid], the half-maximal degradation concentration (DC50) is over 1000 nM at SMARCA4 (setting [1]) and 100 to 1000 nM at SMARCA2 (setting [2]). Also, the Dmax on SMARCA4 (setting [4]) is under 50%; on SMARCA2 (setting [2]), 70 to 90%.

By Dmax is commonly meant the greatest extent of degradation seen. For orientation: DC50 means the concentration giving 50% degradation.
